The kinase profiling compilation of Christmann-Franck et al. (2016)

Legend:
Experiment in all cases: radiometric filter-binding kinase assay, Kinase HotSpot
Conditions in all cases: compound 0.5 µM; ATP 10 µM
[1] = target: FLT1 (human) (UniProt P17948)
[2] = target: PLK3 (human) (UniProt Q9H4B4)
[3] = target: CSNK2A1 (human) (UniProt P68400)
[4] = target: CSNK1A1 (human) (UniProt P48729)
[5] = target: ERBB4 (human) (UniProt Q15303)
[6] = target: GRK7 (human) (UniProt Q8WTQ7)
[7] = target: MAP4K5 (human) (UniProt Q9Y4K4)
MAP4K5 (human), sequence (Q9Y4K4 whole entry, looked up): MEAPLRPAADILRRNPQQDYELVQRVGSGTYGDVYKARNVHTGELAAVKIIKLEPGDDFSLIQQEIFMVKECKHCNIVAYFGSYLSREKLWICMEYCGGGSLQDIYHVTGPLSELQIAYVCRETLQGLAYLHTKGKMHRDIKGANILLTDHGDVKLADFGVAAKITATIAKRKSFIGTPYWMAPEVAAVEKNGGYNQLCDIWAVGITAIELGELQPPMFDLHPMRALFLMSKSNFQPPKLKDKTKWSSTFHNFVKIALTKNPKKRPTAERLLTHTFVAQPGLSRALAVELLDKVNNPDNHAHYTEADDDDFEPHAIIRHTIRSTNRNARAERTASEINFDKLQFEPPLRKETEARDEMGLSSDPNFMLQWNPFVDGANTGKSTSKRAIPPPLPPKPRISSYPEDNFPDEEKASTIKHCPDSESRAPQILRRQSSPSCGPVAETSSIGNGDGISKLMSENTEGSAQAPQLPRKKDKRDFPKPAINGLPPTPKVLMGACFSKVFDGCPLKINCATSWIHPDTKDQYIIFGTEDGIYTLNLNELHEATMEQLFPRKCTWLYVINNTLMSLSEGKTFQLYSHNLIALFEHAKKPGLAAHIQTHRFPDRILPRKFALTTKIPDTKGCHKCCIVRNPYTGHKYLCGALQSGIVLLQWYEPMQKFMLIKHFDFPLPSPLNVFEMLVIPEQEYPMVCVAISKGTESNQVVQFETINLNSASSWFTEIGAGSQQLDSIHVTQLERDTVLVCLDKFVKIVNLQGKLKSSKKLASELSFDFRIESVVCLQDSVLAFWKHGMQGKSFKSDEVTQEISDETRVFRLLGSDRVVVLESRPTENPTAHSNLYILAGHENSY

[8] = target: MAPKAPK3 (human) (UniProt Q16644)
[9] = target: GRK4 (human) (UniProt P32298)
[10] = target: STK10 (human) (UniProt O94804)
[11] = target: PDGFRA (human) (UniProt P16234)
[12] = target: WNK3 (human) (UniProt Q9BYP7)
[13] = target: CHEK1 (human) (UniProt O14757)
[14] = target: CDK1 CCNB1 (human) (UniProt P06493+P14635)
CDK1 CCNB1 (human), sequence (P06493 whole entry, looked up): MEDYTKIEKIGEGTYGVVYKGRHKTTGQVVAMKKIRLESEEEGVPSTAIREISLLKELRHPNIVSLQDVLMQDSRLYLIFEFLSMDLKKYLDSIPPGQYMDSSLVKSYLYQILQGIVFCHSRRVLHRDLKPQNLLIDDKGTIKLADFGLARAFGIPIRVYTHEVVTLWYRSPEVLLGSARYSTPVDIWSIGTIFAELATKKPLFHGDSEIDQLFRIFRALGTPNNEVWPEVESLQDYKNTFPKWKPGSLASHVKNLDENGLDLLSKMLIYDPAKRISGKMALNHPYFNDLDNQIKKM
CDK1 CCNB1 (human), sequence (P14635 whole entry, looked up): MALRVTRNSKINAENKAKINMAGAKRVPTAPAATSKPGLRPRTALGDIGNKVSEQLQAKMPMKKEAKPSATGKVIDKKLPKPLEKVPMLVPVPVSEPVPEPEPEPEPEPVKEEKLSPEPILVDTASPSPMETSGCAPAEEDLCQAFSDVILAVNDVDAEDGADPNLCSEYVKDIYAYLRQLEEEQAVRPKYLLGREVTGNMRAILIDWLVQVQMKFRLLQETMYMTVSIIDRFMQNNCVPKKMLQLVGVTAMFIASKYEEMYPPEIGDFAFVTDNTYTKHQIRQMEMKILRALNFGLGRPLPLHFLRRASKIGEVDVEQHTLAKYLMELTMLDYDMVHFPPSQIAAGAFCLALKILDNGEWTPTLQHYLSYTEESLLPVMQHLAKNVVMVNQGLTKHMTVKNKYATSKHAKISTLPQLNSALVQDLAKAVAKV

[15] = target: RPS6KA1 KD1 KD2 (human) (UniProt Q15418)
[16] = target: FYN (human) (UniProt P06241)
[17] = target: WEE1 (human) (UniProt P30291)
[18] = target: GRK5 (human) (UniProt P34947)
[19] = target: TBK1 (human) (UniProt Q9UHD2)
TBK1 (human), sequence (Q9UHD2 whole entry, looked up): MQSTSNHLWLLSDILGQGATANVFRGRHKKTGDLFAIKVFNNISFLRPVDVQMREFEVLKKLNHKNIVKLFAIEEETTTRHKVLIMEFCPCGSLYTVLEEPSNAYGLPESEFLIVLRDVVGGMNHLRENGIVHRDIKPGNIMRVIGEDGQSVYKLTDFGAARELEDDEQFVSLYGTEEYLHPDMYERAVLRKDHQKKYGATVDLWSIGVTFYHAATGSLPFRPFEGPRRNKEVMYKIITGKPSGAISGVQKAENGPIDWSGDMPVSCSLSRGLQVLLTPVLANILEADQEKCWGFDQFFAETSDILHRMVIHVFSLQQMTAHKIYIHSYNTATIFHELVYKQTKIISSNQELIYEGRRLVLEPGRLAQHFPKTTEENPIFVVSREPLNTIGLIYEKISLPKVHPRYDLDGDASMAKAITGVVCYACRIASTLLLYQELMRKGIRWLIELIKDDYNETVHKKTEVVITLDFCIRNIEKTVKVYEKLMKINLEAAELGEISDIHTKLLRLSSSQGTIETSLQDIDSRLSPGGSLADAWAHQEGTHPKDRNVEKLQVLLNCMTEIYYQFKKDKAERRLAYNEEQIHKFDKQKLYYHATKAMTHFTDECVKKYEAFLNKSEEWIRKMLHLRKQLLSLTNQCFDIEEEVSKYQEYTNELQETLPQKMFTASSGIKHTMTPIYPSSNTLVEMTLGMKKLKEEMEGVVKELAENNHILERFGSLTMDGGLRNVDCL

[20] = target: MAPK13 (human) (UniProt O15264)
[21] = target: PAK1 (human) (UniProt Q13153)
[22] = target: MAPK11 (human) (UniProt Q15759)
[23] = target: EPHB4 (human) (UniProt P54760)
[24] = target: RPS6KA2 KD1 KD2 (human) (UniProt Q15349)
RPS6KA2 KD1 KD2 (human), sequence (Q15349 whole entry, looked up): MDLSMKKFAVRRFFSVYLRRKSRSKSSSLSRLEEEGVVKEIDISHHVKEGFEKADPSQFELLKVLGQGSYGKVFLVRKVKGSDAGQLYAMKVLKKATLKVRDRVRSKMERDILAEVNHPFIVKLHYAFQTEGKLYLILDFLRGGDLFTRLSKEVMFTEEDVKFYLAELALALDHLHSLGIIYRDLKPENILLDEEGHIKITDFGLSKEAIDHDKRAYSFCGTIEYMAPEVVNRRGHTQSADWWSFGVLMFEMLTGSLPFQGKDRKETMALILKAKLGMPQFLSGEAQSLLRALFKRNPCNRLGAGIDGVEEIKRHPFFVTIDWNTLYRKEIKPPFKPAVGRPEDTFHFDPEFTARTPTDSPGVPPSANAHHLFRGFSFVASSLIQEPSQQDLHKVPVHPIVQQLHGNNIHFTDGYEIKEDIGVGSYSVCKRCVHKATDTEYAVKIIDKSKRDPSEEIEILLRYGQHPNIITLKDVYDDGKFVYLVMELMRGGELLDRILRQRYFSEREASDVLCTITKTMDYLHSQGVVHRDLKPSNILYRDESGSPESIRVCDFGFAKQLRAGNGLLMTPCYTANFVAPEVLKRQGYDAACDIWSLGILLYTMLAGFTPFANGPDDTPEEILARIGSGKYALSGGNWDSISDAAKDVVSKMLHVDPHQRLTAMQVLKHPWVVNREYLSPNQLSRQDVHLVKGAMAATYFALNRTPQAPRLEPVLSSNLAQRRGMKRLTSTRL

[25] = target: RET (human) (UniProt P07949)
[26] = target: FLT3 (human) (UniProt P36888)
[27] = target: CDK5 CDK5R1 p25 (human) (UniProt Q00535+Q15078)
[28] = target: PRKD2 (human) (UniProt Q9BZL6)
[29] = target: CDK9 CCNT1 (human) (UniProt P50750+O60563)
CDK9 CCNT1 (human), sequence (O60563 whole entry, looked up): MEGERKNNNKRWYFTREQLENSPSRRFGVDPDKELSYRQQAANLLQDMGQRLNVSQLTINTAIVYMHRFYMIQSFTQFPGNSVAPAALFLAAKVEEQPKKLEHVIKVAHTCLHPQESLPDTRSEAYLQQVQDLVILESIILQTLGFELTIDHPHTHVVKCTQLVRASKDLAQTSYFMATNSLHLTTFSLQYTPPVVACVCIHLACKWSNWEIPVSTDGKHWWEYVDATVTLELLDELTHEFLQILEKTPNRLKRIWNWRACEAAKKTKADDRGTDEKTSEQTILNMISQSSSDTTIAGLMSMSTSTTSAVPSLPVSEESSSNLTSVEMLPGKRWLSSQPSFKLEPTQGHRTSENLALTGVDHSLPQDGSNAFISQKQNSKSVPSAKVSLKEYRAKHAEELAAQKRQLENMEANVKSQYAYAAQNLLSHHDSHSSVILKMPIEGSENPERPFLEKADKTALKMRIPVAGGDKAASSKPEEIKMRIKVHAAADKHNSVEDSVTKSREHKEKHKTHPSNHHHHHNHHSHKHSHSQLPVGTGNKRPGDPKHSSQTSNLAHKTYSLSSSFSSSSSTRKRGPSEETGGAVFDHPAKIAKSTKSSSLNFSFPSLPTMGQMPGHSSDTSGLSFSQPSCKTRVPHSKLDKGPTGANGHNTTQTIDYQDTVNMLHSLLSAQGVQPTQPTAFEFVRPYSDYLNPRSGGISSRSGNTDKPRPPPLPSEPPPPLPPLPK
CDK9 CCNT1 (human), sequence (P50750 whole entry, looked up): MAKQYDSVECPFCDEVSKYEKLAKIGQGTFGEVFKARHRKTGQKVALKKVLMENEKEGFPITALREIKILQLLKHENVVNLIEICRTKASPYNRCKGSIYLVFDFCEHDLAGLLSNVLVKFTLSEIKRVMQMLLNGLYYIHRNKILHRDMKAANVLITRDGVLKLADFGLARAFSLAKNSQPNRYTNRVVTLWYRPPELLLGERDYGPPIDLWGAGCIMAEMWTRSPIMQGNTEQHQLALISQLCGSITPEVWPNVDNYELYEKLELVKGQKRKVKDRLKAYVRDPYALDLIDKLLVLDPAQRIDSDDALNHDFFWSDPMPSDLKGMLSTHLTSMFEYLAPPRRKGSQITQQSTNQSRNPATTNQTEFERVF

[30] = target: PRKD1 (human) (UniProt Q15139)
[31] = target: PRKACA (human) (UniProt P17612)
[32] = target: FRK (human) (UniProt P42685)
[33] = target: SRC (human) (UniProt P12931)
[34] = target: CDK6 CCND3 (human) (UniProt P30281+Q00534)
[35] = target: KIT (human) (UniProt P10721)
[36] = target: MAPK1 (human) (UniProt P28482)
[37] = target: AXL (human) (UniProt P30530)
AXL (human), sequence (P30530 whole entry, looked up): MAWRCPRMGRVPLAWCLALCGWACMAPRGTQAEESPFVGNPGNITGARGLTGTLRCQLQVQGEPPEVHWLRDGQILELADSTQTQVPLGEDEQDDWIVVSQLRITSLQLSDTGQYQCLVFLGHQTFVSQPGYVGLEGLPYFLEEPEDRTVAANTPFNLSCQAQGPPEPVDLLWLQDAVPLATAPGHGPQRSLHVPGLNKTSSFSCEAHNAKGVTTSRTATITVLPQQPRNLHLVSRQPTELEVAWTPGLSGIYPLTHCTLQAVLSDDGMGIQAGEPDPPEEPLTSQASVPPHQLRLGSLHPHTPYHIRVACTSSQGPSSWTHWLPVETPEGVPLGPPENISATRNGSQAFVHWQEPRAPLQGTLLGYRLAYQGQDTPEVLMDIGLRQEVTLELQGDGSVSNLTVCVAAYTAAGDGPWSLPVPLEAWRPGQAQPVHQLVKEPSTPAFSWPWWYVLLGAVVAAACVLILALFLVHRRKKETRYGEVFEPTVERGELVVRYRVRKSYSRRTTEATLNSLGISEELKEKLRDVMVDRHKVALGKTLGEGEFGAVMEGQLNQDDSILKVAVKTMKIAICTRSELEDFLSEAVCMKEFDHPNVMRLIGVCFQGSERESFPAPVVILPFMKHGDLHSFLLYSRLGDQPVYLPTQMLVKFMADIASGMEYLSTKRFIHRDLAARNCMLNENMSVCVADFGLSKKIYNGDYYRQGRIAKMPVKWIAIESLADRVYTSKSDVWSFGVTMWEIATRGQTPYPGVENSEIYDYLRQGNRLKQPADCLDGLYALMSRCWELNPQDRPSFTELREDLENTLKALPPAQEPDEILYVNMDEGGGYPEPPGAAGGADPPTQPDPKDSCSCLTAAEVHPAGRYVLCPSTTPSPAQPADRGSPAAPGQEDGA

[38] = target: CAMK2B (human) (UniProt Q13554)
[39] = target: ALK (human) (UniProt Q9UM73)
[40] = target: RAF1 (human) (UniProt P04049)
[41] = target: TGFBR2 (human) (UniProt P37173)

O=C1NC(=O)C(c2cn(CCCn3ccnc3)c3ccccc23)=C1Nc1ccccc1
residual activity [1]: 85.7%
residual activity [2]: 99.8%
residual activity [3]: 100%
residual activity [4]: 102%
residual activity [5]: 59.6%
residual activity [6]: 86.3%
residual activity [7]: 66.5%
residual activity [8]: 92.4%
residual activity [9]: 91.6%
residual activity [10]: 11.5%
residual activity [11]: 94.1%
residual activity [12]: 100%
residual activity [13]: 76.6%
residual activity [14]: 84.9%
residual activity [15]: 7.54%
residual activity [16]: 102%
residual activity [17]: 95.8%
residual activity [18]: 90.9%
residual activity [19]: 48%
residual activity [20]: 122%
residual activity [21]: 92.9%
residual activity [22]: 111%
residual activity [23]: 87.9%
residual activity [24]: 3.17%
residual activity [25]: 95.6%
residual activity [26]: 8.21%
residual activity [27]: 86%
residual activity [28]: 94.3%
residual activity [29]: 51.3%
residual activity [30]: 94.4%
residual activity [31]: 94%
residual activity [32]: 107%
residual activity [33]: 100%
residual activity [34]: 104%
residual activity [35]: 90.2%
residual activity [36]: 94.8%
residual activity [37]: 98.8%
residual activity [38]: 93.8%
residual activity [39]: 97.7%
residual activity [40]: 105%
residual activity [41]: 134%

CCN(CC)CCNC(=O)c1c(C)[nH]c(/C=C2\C(=O)Nc3ccc(Cl)cc32)c1C
residual activity [1]: 34.4%
residual activity [2]: 89.8%
residual activity [3]: 91.4%
residual activity [4]: 75.7%
residual activity [5]: 86.1%
residual activity [6]: 62.2%
residual activity [7]: 0.833%
residual activity [8]: 101%
residual activity [9]: 80.8%
residual activity [10]: 7.11%
residual activity [11]: 25.9%
residual activity [12]: 86.3%
residual activity [13]: 15.1%
residual activity [14]: 109%
residual activity [15]: 13.1%
residual activity [16]: 28.4%
residual activity [17]: 94.8%
residual activity [18]: 82.7%
residual activity [19]: 16.3%
residual activity [20]: 104%
residual activity [21]: 93.4%
residual activity [22]: 100%
residual activity [23]: 76.9%
residual activity [24]: 10%
residual activity [25]: 2.47%
residual activity [26]: 0.782%
residual activity [27]: 95.1%
residual activity [28]: 11.9%
residual activity [29]: 58.8%
residual activity [30]: 11.3%
residual activity [31]: 90%
residual activity [32]: 59.3%
residual activity [33]: 26%
residual activity [34]: 41.6%
residual activity [35]: 28.7%
residual activity [36]: 97.1%
residual activity [37]: 25.2%
residual activity [38]: 27.3%
residual activity [39]: 3.45%
residual activity [40]: 117%
residual activity [41]: 113%

N#CC(C#N)=C(N)/C(C#N)=C/c1ccc(O)cc1
residual activity [1]: 90.7%
residual activity [2]: 63.6%
residual activity [3]: 104%
residual activity [4]: 85%
residual activity [5]: 92.7%
residual activity [6]: 104%
residual activity [7]: 99.6%
residual activity [8]: 99.9%
residual activity [9]: 99.6%
residual activity [10]: 92.4%
residual activity [11]: 97.8%
residual activity [12]: 99.8%
residual activity [13]: 98.3%
residual activity [14]: 111%
residual activity [15]: 93.8%
residual activity [16]: 98.4%
residual activity [17]: 93.7%
residual activity [18]: 113%
residual activity [19]: 91.1%
residual activity [20]: 103%
residual activity [21]: 90.9%
residual activity [22]: 100%
residual activity [23]: 88.1%
residual activity [24]: 96.2%
residual activity [25]: 110%
residual activity [26]: 92.2%
residual activity [27]: 97.6%
residual activity [28]: 100%
residual activity [29]: 83.9%
residual activity [30]: 101%
residual activity [31]: 100%
residual activity [32]: 99%
residual activity [33]: 92.3%
residual activity [34]: 100%
residual activity [35]: 92.4%
residual activity [36]: 101%
residual activity [37]: 93.7%
residual activity [38]: 93.3%
residual activity [39]: 109%
residual activity [40]: 86.3%
residual activity [41]: 113%

CO[C@H]1CC2CC[C@@H](C)[C@@](O)(O2)C(=O)C(=O)N2CCCC[C@H]2C(=O)OC([C@H](C)C[C@@H]2CC[C@@H](O)[C@H](OC)C2)CC(=O)[C@H](C)/C=C(\C)[C@@H](O)[C@@H](OC)C(=O)[C@H](C)C[C@H](C)/C=C/C=C/C=C/1C (some centres undefined)
residual activity [1]: 97.7%
residual activity [2]: 96.2%
residual activity [3]: 94.7%
residual activity [4]: 99.3%
residual activity [5]: 88.7%
residual activity [6]: 98%
residual activity [7]: 110%
residual activity [8]: 90.9%
residual activity [9]: 96.1%
residual activity [10]: 97.7%
residual activity [11]: 95.1%
residual activity [12]: 102%
residual activity [13]: 107%
residual activity [14]: 103%
residual activity [15]: 104%
residual activity [16]: 109%
residual activity [17]: 93.3%
residual activity [18]: 98.7%
residual activity [19]: 94.7%
residual activity [20]: 121%
residual activity [21]: 95.6%
residual activity [22]: 113%
residual activity [23]: 89.5%
residual activity [24]: 89.5%
residual activity [25]: 98.7%
residual activity [26]: 95.6%
residual activity [27]: 96.3%
residual activity [28]: 99%
residual activity [29]: 87%
residual activity [30]: 98.2%
residual activity [31]: 99.8%
residual activity [32]: 106%
residual activity [33]: 96%
residual activity [34]: 105%
residual activity [35]: 95.7%
residual activity [36]: 101%
residual activity [37]: 99.5%
residual activity [38]: 99.2%
residual activity [39]: 115%
residual activity [40]: 97.2%
residual activity [41]: 136%
